Data: patent publication US20150126368A1, “METHOD OF PROVIDING PLANT WITH STRESS RESISTANCE” (Nippon Soda Co., Ltd., priority 2012, published 2015)

What was measured:
[1] = tested on: Cherry tomato (breed; Regina); experiment: Evaluation test for relief effects of high temperature injury on cherry tomato; format: in vivo; conditions: 30% water dispersible granule at plant foot at intervals of seven days
Procedure: Cherry tomato (breed; Regina, 5 reprications) grown in a greenhouse was prepared.
On August 24 at the first inflorescence anthesis, 0.15% of 4-chlorophenoxyacetic acid was sprayed, and a water dispersible granule of 30% ascorbyl palmitate in an amount described in Table 4 was further applied at the plant foot at intervals of seven days. All fruits were harvested on September 28, and the color of a fruit (classified into red and green), the weight of a fruit, and the number of fruits were investigated to calculate the weight per fruit and the percentage of red fruits (%).

[2] = tested on: tomato yellow leaf curl virus (TYLCV); experiment: Test for symptom relief effects against tomato yellow leaf curl virus disease; format: in vivo; conditions: for Onset percentage(%): tomato graft-inoculated, sprayed 4 times; for Onset percentage(%) / Onset inhibition percentage(%): 25 days; for Onset inhibition percentage(%): vs solvent DMF only; for Expectation value(%): expectation value of onset inhibition percentage
Procedure: N,N-dimethylformamide based solutions were prepared according to the formulations shown in Table 18 to give chemical liquids for the tests.
Tomato nursery plants (breed: Momotaro) grown up to the 8 leaf stage in a greenhouse were prepared.
Tomato nursery plants suffering from tomato yellow leaf curl virus (TYLCV) were used as inoculation sources.
A diseased plant was obliquely cut in round slices at the stem, and graft-inoculated to a tomato nursery plant. In order to prevent dryness, parafilm was wrapped around the grafted portion for protection.
After the graft inoculation, the above chemical solution was sprayed on the stem and leaf part of the tomato nursery plant in a sufficient amount. Then, the above chemical solution was sprayed 3 times at intervals of about one week in a sufficient amount. Symptoms of tomato yellow leaf curl disease were investigated at an elapsed time of 25 days.
Symptoms were evaluated by 5 levels of onset indices of 0 (with no onset) to 4 (fulminant).
Onset inhibition percentages as compared with a region treated with solvent DMF only (Chemical solution 3) were computed by the following formula.
Onset inhibition percentage=(onset index of region treated with solvent only)−(onset index of each treatment region))/(onset index of region treated with solvent only)×100
Further, the expectation values of onset inhibition percentages were computed based on the Colby's equation.
The Colby's equation is E=M+N−MN/100. In the equation, E represents the expectation value of an onset inhibition percentage (%), and M represents an onset inhibition percentage (%) calculated from measurements when the substance (A1) is used alone, and N represent an onset inhibition percentage (%) calculated from measurements when the substance (A2) is used alone.

## CCCCCCCCCCCCCCCC(=O)OC[C@H](O)[C@H]1OC(=O)C(O)=C1O [ascorbyl palmitate]
[1]; dosage 0.1 g/stock
  color of fruit: Number of green fruits: 13
  color of fruit: Number of red fruits: 19
  color of fruit: Percents of red fruits vs. no treatment region(%): 141%
  color of fruit: Percents of red fruits(%): 59%
  yield: Total number of fruits: 32
  yield: Total weight of fruits: 304 g
  yield: weight per fruit vs. no treatment region(%): 138%
  yield: weight per fruit(g/fruit): 9.5 g/fruit
[1]; dosage 0.5 g/stock
  color of fruit: Number of green fruits: 4
  color of fruit: Number of red fruits: 29
  color of fruit: Percents of red fruits vs. no treatment region(%): 209%
  color of fruit: Percents of red fruits(%): 88%
  yield: Total number of fruits: 33
  yield: Total weight of fruits: 342 g
  yield: weight per fruit vs. no treatment region(%): 151%
  yield: weight per fruit(g/fruit): 10.4 g/fruit
[2]; 500 ppm alone
  Onset percentage(%): 30%
  Onset inhibition percentage(%): 40%
  Expectation value(%): 40%
[2]; 1000 ppm alone
  Onset percentage(%): 20%
  Onset inhibition percentage(%): 60%
  Expectation value(%): 60%
